Source: ChEMBL document CHEMBL5291721, “A preclinical secondary pharmacology resource illuminates target-adverse drug reaction associations of marketed drugs” (Nat Commun, 2023)

How the values were obtained:
Melanocortin receptor 4 = Melanocortin receptor 4 (Homo sapiens, UniProt P32245)
[1] = molecular target: T1, Muscarinic acetylcholine receptor M1 (Homo sapiens, UniProt P11229); format: functional
T1 sequence (P11229 whole entry): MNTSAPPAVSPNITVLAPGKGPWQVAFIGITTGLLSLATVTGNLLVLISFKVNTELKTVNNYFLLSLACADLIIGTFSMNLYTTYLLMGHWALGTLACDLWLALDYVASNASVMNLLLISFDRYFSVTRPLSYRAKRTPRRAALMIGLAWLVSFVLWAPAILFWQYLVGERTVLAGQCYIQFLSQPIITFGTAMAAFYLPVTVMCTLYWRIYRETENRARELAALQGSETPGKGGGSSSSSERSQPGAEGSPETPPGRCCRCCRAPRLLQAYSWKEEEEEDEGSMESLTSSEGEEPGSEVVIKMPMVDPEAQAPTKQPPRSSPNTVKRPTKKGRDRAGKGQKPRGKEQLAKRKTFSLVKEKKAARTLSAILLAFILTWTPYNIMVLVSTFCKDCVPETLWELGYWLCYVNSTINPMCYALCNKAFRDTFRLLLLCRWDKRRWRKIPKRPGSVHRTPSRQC

Cannabinoid receptor 1 = Cannabinoid receptor 1 (Homo sapiens, UniProt P21554)
Estrogen receptor = molecular target: T2, Estrogen receptor (Homo sapiens, UniProt P03372)
T2 sequence (P03372 whole entry): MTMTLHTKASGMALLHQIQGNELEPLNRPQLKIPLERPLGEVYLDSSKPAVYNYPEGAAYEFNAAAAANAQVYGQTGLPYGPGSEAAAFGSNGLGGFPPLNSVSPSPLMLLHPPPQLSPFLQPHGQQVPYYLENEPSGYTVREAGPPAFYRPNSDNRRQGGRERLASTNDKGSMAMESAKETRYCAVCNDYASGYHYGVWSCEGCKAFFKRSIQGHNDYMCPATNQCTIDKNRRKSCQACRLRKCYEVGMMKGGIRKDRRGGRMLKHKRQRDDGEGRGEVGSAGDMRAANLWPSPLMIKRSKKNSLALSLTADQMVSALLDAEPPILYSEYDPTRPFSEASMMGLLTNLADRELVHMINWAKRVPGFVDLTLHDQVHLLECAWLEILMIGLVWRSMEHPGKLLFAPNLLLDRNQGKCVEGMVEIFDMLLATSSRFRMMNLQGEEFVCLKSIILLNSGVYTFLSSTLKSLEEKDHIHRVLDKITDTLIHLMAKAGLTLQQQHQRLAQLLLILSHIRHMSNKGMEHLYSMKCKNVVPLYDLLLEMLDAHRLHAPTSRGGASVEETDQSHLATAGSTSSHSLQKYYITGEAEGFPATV

[2] = molecular target: T3, Alpha-1A adrenergic receptor (Homo sapiens, UniProt P35348); format: functional, cell-based
T3 sequence (P35348 whole entry): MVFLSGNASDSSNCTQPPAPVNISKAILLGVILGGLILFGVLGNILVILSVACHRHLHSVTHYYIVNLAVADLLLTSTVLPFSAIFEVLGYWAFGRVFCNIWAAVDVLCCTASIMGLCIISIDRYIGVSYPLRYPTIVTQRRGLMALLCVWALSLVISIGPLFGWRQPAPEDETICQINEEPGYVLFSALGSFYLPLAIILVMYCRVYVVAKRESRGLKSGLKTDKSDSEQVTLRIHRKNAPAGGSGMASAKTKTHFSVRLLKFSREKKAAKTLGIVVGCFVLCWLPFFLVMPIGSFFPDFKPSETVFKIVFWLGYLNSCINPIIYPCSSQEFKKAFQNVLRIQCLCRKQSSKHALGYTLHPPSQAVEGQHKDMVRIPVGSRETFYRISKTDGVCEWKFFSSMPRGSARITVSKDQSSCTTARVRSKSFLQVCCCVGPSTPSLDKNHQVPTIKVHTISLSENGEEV

Progesterone receptor = molecular target: T4, Progesterone receptor (Homo sapiens, UniProt P06401); format: functional
T4 sequence (P06401 whole entry): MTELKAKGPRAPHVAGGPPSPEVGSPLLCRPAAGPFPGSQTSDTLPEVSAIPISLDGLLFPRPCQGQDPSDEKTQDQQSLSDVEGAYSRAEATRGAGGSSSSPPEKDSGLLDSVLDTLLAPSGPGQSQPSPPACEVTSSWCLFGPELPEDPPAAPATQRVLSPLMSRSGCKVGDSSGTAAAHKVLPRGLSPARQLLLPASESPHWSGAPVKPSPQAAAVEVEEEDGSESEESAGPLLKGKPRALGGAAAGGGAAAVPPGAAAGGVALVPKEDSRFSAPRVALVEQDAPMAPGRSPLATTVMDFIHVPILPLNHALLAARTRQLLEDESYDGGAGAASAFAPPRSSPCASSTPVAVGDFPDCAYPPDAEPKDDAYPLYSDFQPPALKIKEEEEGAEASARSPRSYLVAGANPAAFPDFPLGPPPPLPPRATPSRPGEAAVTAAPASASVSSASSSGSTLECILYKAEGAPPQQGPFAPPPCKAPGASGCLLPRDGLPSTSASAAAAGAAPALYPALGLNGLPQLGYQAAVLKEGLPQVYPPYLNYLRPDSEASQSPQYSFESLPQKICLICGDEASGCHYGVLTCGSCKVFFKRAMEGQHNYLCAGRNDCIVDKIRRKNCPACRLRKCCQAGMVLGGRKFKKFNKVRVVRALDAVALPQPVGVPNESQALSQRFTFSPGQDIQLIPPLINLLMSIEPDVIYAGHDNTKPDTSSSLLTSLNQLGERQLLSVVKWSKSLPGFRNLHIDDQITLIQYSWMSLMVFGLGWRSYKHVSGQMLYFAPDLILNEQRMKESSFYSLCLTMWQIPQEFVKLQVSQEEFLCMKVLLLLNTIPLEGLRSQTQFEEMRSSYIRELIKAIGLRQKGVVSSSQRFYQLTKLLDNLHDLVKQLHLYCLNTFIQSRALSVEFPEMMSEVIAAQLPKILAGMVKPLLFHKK

[3] = molecular target: T5, 5-hydroxytryptamine receptor 1A (Homo sapiens, UniProt P08908); format: functional, cell-based
T5 sequence (P08908 whole entry): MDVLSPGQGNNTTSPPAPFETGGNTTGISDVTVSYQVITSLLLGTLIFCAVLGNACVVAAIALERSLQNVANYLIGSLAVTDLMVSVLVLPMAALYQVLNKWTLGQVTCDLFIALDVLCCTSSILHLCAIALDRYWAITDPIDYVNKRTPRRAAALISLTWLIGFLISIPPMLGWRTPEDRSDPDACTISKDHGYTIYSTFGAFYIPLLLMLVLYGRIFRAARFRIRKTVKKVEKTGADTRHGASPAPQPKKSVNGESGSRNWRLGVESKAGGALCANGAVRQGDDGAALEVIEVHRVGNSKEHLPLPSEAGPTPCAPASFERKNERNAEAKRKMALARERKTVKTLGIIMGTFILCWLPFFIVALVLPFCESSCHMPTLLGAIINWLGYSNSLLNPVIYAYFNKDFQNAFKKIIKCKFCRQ
Note: assay procedure not described here.

Chain of Melanocortin receptor 4 (P32245 whole entry): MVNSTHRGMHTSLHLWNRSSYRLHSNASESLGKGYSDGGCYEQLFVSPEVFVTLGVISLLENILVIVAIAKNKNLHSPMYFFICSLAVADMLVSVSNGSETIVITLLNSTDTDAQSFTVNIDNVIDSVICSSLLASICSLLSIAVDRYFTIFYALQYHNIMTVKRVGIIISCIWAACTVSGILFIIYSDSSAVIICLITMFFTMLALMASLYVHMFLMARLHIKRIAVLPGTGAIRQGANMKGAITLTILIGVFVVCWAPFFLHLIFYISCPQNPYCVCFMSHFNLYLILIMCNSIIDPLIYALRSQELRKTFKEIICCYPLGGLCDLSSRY
Chain of Cannabinoid receptor 1 (P21554 whole entry): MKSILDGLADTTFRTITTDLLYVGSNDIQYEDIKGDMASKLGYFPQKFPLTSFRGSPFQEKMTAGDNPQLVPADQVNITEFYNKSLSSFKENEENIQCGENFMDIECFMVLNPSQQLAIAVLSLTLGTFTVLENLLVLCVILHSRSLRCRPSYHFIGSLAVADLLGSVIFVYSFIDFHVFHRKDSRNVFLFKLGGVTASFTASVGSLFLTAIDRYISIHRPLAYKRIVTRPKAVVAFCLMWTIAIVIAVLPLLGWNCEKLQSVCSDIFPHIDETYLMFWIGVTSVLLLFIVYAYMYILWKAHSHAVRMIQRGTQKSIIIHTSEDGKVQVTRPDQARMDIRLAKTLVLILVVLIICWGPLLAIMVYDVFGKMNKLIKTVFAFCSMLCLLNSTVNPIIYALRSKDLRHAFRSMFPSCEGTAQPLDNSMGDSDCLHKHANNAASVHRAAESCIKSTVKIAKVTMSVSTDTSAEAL

SMILES	AC50 (Melanocortin receptor 4)	AC50 [1]	AC50 (Cannabinoid receptor 1)	AC50 (Estrogen receptor)	AC50 [2]	AC50 (Progesterone receptor)	AC50 [3]
C[C@]1(COc2ccc(N3CCC(Oc4ccc(OC(F)(F)F)cc4)CC3)cc2)Cn2cc([N+](=O)[O-])nc2O1	> 30 µM	> 10 µM	> 10 µM	> 30 µM			
CC(=O)OCC[N+](C)(C)C [ACETYLCHOLINE]	> 30 µM		> 10 µM		> 30 µM	> 30 µM	
O=C(Nc1nc(-c2cc(Cl)cs2)c(N2CCN(C3CCCCC3)CC2)s1)c1cnc(N2CCC(C(=O)O)CC2)c(Cl)c1 [AVATROMBOPAG]	> 10 µM	> 10 µM	> 10 µM				
CN(C)C(=O)Oc1cc(OC(=O)N(C)C)cc(C(O)CNC(C)(C)C)c1 (centres undefined) [BAMBUTEROL]				> 30 µM		> 30 µM	
C[C@H]1C[C@H]2[C@@H]3CCC4=CC(=O)C=C[C@]4(C)[C@@]3(Cl)[C@@H](O)C[C@]2(C)[C@@]1(O)C(=O)CO [BECLOMETHASONE]	> 30 µM		> 10 µM	> 30 µM			
CO[C@@]1(NC(=O)CSCC#N)C(=O)N2C(C(=O)O)=C(CSc3nnnn3C)CS[C@@H]21 [CEFMETAZOLE]					> 30 µM		> 30 µM
CO/N=C(\C(=O)N[C@@H]1C(=O)N2C(C(=O)[O-])=C(C[n+]3cccc4c3CCC4)CS[C@H]12)c1csc(N)n1 [CEFPIROME]		> 30 µM			> 30 µM		
NS(=O)(=O)c1cc(C2(O)NC(=O)c3ccccc32)ccc1Cl (centres undefined) [CHLORTHALIDONE]	> 10 µM		> 10 µM			> 10 µM	> 10 µM
CC[C@H]1OC(=O)[C@H](C)[C@@H](O[C@H]2C[C@@](C)(OC)[C@@H](O)[C@H](C)O2)[C@H](C)[C@@H](O[C@@H]2O[C@H](C)C[C@H](N(C)C)[C@H]2O)[C@](C)(OC)C[C@@H](C)C(=O)[C@H](C)[C@@H](O)[C@]1(C)O [CLARITHROMYCIN]					> 30 µM	> 30 µM	
Oc1c(I)cc(Cl)c2cccnc12 [CLIOQUINOL]		> 30 µM			> 30 µM		> 30 µM
C[C@@H]1CCC[C@H](C)N1NC(=O)c1ccc(Cl)c(S(N)(=O)=O)c1 [CLOPAMIDE]		> 30 µM		> 30 µM	> 30 µM	> 30 µM	> 30 µM
COc1ccc2c(c1)[C@]13CCCC[C@@H]1[C@H](C2)N(C)CC3 [DEXTROMETHORPHAN]	> 30 µM		> 10 µM	> 30 µM			> 10 µM
O=c1oc2ccccc2c(O)c1Cc1c(O)c2ccccc2oc1=O [DICUMAROL]	> 10 µM		> 10 µM			> 10 µM	> 10 µM
CCn1cc(C(=O)O)c(=O)c2cc(F)c(N3CCNCC3)nc21 [ENOXACIN]	> 30 µM		> 10 µM	> 30 µM			> 10 µM
O=C(O)CSCC(=O)NC1CCSC1=O (centres undefined) [ERDOSTEINE]		> 30 µM			> 30 µM	> 30 µM	
COc1cccc(N(C)C(=S)Oc2ccc3c(c2)CCCC3)n1 [LIRANAFTATE]		> 30 µM		> 30 µM	> 30 µM	> 30 µM	
C#C[C@]1(O)CC[C@H]2[C@@H]3CCc4cc(OC)ccc4[C@H]3CC[C@@]21C [MESTRANOL]	> 10 µM		> 10 µM	0.136 µM			> 10 µM
N=C(N)c1ccc2cc(OC(=O)c3ccc(N=C(N)N)cc3)ccc2c1 [NAFAMOSTAT]		8.7 µM			15 µM		
CNC(=O)Oc1ccc2c(c1)[C@]1(C)CCN(C)[C@@H]1N2C [PHYSOSTIGMINE]				> 30 µM	> 30 µM	> 30 µM	> 30 µM
O=C(O)c1cc(O)c2c3nc4ccccc4oc-3cc(=O)c2n1 [PIRENOXINE]		6.7 µM			> 30 µM	> 30 µM	> 30 µM
NS(=O)(=O)c1cc(C(=O)O)cc(N2CCCC2)c1Oc1ccccc1 [PIRETANIDE]		> 30 µM		> 30 µM		> 30 µM	> 30 µM
CNCCCC1c2ccccc2C=Cc2ccccc21 [PROTRIPTYLINE]	> 10 µM		> 10 µM	> 10 µM		> 10 µM	> 10 µM
COCCCOc1ccnc(C[S+]([O-])c2nc3ccccc3[nH]2)c1C (centres undefined) [RABEPRAZOLE]	> 30 µM		> 10 µM				> 10 µM
CC(C)=CCOc1ccc(/C=C/C(=O)c2ccc(OCC=C(C)C)cc2OCC(=O)O)cc1 [SOFALCONE]		> 30 µM		> 30 µM	25 µM	9.4 µM	
O=C(CCCN1CCC2(CC1)C(=O)NCN2c1ccccc1)c1ccc(F)cc1 [SPIPERONE]		> 30 µM			1.6 µM	> 30 µM	
CCSc1ccc2c(c1)N(CCCN1CCN(C)CC1)c1ccccc1S2 [THIETHYLPERAZINE]		16 µM			1.6 µM	> 30 µM	
CN(C)c1cc(NC(=O)CNC(C)(C)C)c(O)c2c1C[C@H]1C[C@H]3[C@H](N(C)C)C(O)=C(C(N)=O)C(=O)[C@@]3(O)C(O)=C1C2=O [TIGECYCLINE]	> 30 µM	27 µM	> 30 µM	> 30 µM		> 30 µM	
OCCN1CCN(CC/C=C2/c3ccccc3Sc3ccc(Cl)cc32)CC1 [ZUCLOPENTHIXOL]	> 10 µM	> 10 µM	> 10 µM			> 10 µM	6.4 µM
